Laboratory results as given in article PMC8443589, “Modelling human liver fibrosis in the context of non-alcoholic steatohepatitis using a microphysiological system” (Communications Biology, 2021).

Test system: liver MPS NASH model (PHH, KC and HSC co-cultures, high fat)
Experiment: Secreted cytokine/biomarker profile (Luminex, ELISA) of liver MPS NASH model dosed with OCA or ELF
Type: cell-based, human
Procedure: Fig. 3 Obeticholic acid and Elafibranor both modulate inflammatory and fibrosis phenotype in liver MPS NASH model and phenotype can additionally be reversed with dietary changes. PHH, KC and HSC co-cultures were cultured in the MPS platform under high fat conditions and dosed with varying concentrations of Obeticholic acid (OCA) and Elafibranor (ELF) QD or vehicle control (control) for 10 days, following an initial 4-day pre-culture phase. a The secreted cytokine profile from liver microtissues was compared by Luminex to determine the effects of each compound on the inflammatory profile of the liver with samples analysed at day 8 and 14 of the culture. Data were normalised by Z-transformation to allow comparison of all analytes and presented as a heatmap. b The expression of fibrosis-associated genes was analysed in total RNA from control, OCA and ELF treated liver microtissues (highest concentration for each compound) using Human Fibrosis RT2 Profiler PCR Arrays. Gene expression changes are expressed as a fold change over control. c Liver microtissues were stained for collagen-type I, α-SMA, nuclei (DAPI - blue), phalloidin (green) and imaged by confocal microscopy. Representative images are shown and scale bars 200 µm. d Staining of microtissue was quantified by measuring total fluorescence intensity throughout individual microtissues, each data point represents an average of all the microtissues imaged within an MPS scaffold (min 8, max 20 microtissues). e PHH, KC and HSC co-cultures were cultured in the MPS platform under high fat or lean conditions for 30 days. Cultures either remained in the same type of media throughout or were switched at day 15 from fat media to lean media (Fat -> Lean). Cell culture medium samples were analysed for the presence of IL-6, f MCP-1, g TIMP-1, which were measured by ELISA. h Microtissues were stained with Oil-Red O to determine fat loading during culture period, total stain was quantified by absorbance at 510 nm. All datapoints shown, either as box-whisker plots highlighting mean and min-max or with error bars highlighting means ± SD. All data from a minimum of three independent cultures; statistical comparisons made to control samples unless other comparison shown.
Soluble biomarkers in cell culture medium from the MPS were analysed by enzyme-linked immunosorbent assay (ELISA); IL-6 was measured by Human IL-6 DuoSet ELISA (R&D Systems); MCP-1 was measured by Human CCL2/MCP-1 DuoSet ELISA (R&D Systems); pro-collagen 1 was measured by Human Pro-Collagen I α1 DuoSet (R&D Systems); TIMP-1 was measured by Human TIMP-1 Quantikine ELISA Kit (R&D Systems); Fibronectin was measured by Human Fibronectin DuoSet ELISA (R&D Systems); YKL-40 was measured by Human Chitinase 3-like 1 Quantikine ELISA Kit (R&D Systems); Albumin secretion was measured by Human Albumin AssayMax™ ELISA kit (Assay Pro, St. Charles, MO). For all assays, the manufacturer’s protocol was followed.
Cytokine profiles in cell culture medium samples were also analysed by Luminex array for determination of 38 analytes in total, consisting of cytokines, chemokines, and growth factors using the MILLIPLEX MAP Human Cytokine/Chemokine Magnetic Bead Panel - Premixed 38 Plex (Merck Millipore, USA).
Liver microtissues were cultured for 4 days in HEP-FAT medium, before dosing with obeticholic acid or elafibranor. Both compounds were dissolved in DMSO, diluted in cell culture medium (final DMSO concentration ≤1%) and added to microtissues during a full medium change every two days and in addition on the intervening days compounds were spiked into the media to increase drug concentration back to desired concentrations. Cultures were maintained in the presence of the compound, for a total of 10 days in the presence or absence of TGFβ.

Structure (SMILES): CC[C@H]1[C@@H](O)[C@@H]2[C@H](CC[C@]3(C)[C@@H]([C@H](C)CCC(=O)O)CC[C@@H]23)[C@@]2(C)CC[C@@H](O)C[C@@H]12 [Obeticholic acid]
- inflammatory cytokines, including CXCL1, IL1-Rα, IL-6 and MCP-1 (10 days of compound treatment): concentration-dependent decrease
- CXCL1 fold change in production compared to control (OCA 0.25 µM QD, D8): 1.039
- CXCL10 fold change in production compared to control (OCA 0.25 µM QD, D8): 1.592
- FN1 fold change in production compared to control (OCA 0.25 µM QD, D8): 1.009
- IL-1RA fold change in production compared to control (OCA 0.25 µM QD, D8): 0.6936
- IL-4 fold change in production compared to control (OCA 0.25 µM QD, D8): 1.307
- IL-6 fold change in production compared to control (OCA 0.25 µM QD, D8): 0.4788
- IL-8 fold change in production compared to control (OCA 0.25 µM QD, D8): 1.109
- MCP-1 fold change in production compared to control (OCA 0.25 µM QD, D8): 1.237
- MIP-1a fold change in production compared to control (OCA 0.25 µM QD, D8): 1.006
- MIP-1b fold change in production compared to control (OCA 0.25 µM QD, D8): 1.009
- TIMP-1 fold change in production compared to control (OCA 0.25 µM QD, D8): 0.957
- VEGF fold change in production compared to control (OCA 0.25 µM QD, D8): 0.3694
- CXCL1 fold change in production compared to control (OCA 0.25 µM QD, D14): 0.7512
- CXCL10 fold change in production compared to control (OCA 0.25 µM QD, D14): 1.289
- FN1 fold change in production compared to control (OCA 0.25 µM QD, D14): 1.087
- IL-1RA fold change in production compared to control (OCA 0.25 µM QD, D14): 0.3915
- IL-4 fold change in production compared to control (OCA 0.25 µM QD, D14): 1.067
- IL-6 fold change in production compared to control (OCA 0.25 µM QD, D14): 0.3892
- IL-8 fold change in production compared to control (OCA 0.25 µM QD, D14): 0.7621
- MCP-1 fold change in production compared to control (OCA 0.25 µM QD, D14): 1.11
- MIP-1a fold change in production compared to control (OCA 0.25 µM QD, D14): 1.483
- MIP-1b fold change in production compared to control (OCA 0.25 µM QD, D14): 1.406
- TIMP-1 fold change in production compared to control (OCA 0.25 µM QD, D14): 0.7667
- VEGF fold change in production compared to control (OCA 0.25 µM QD, D14): 0.2436
- CXCL1 fold change in production compared to control (OCA 5 µM QD, D8): 0.9903
- CXCL10 fold change in production compared to control (OCA 5 µM QD, D8): 1.252
- FN1 fold change in production compared to control (OCA 5 µM QD, D8): 0.9708
- IL-1RA fold change in production compared to control (OCA 5 µM QD, D8): 0.2279
- IL-4 fold change in production compared to control (OCA 5 µM QD, D8): 1.215
- IL-6 fold change in production compared to control (OCA 5 µM QD, D8): 0.3708
- IL-8 fold change in production compared to control (OCA 5 µM QD, D8): 1.325
- MCP-1 fold change in production compared to control (OCA 5 µM QD, D8): 0.9348
- MIP-1a fold change in production compared to control (OCA 5 µM QD, D8): 0.7425
- MIP-1b fold change in production compared to control (OCA 5 µM QD, D8): 0.6949
- TIMP-1 fold change in production compared to control (OCA 5 µM QD, D8): 0.8577
- VEGF fold change in production compared to control (OCA 5 µM QD, D8): 0.4201
- CXCL1 fold change in production compared to control (OCA 5 µM QD, D14): 0.8937
- CXCL10 fold change in production compared to control (OCA 5 µM QD, D14): 1.722
- FN1 fold change in production compared to control (OCA 5 µM QD, D14): 1.05
- IL-1RA fold change in production compared to control (OCA 5 µM QD, D14): 0.2225
- IL-4 fold change in production compared to control (OCA 5 µM QD, D14): 1.3182
- IL-6 fold change in production compared to control (OCA 5 µM QD, D14): 0.3278
- IL-8 fold change in production compared to control (OCA 5 µM QD, D14): 2.0708
- MCP-1 fold change in production compared to control (OCA 5 µM QD, D14): 0.6363
- MIP-1a fold change in production compared to control (OCA 5 µM QD, D14): 0.8372
- MIP-1b fold change in production compared to control (OCA 5 µM QD, D14): 0.7752
- TIMP-1 fold change in production compared to control (OCA 5 µM QD, D14): 0.8205
- VEGF fold change in production compared to control (OCA 5 µM QD, D14): 0.5877
- CXCL1 fold change in production compared to control (OCA 12.5 µM QD, D8): 0.5392
- CXCL10 fold change in production compared to control (OCA 12.5 µM QD, D8): 1.011
- FN1 fold change in production compared to control (OCA 12.5 µM QD, D8): 0.8305
- IL-1RA fold change in production compared to control (OCA 12.5 µM QD, D8): 0.1467
- IL-4 fold change in production compared to control (OCA 12.5 µM QD, D8): 0.6477
- IL-6 fold change in production compared to control (OCA 12.5 µM QD, D8): 0.3353
- IL-8 fold change in production compared to control (OCA 12.5 µM QD, D8): 0.6609
- MCP-1 fold change in production compared to control (OCA 12.5 µM QD, D8): 0.4398
- MIP-1a fold change in production compared to control (OCA 12.5 µM QD, D8): 1.1281
- MIP-1b fold change in production compared to control (OCA 12.5 µM QD, D8): 0.9989
- TIMP-1 fold change in production compared to control (OCA 12.5 µM QD, D8): 1.076
- VEGF fold change in production compared to control (OCA 12.5 µM QD, D8): 0.449
- CXCL1 fold change in production compared to control (OCA 12.5 µM QD, D14): 0.5648
- CXCL10 fold change in production compared to control (OCA 12.5 µM QD, D14): 0.9485
- FN1 fold change in production compared to control (OCA 12.5 µM QD, D14): 0.8335
- IL-1RA fold change in production compared to control (OCA 12.5 µM QD, D14): 0.07151
- IL-4 fold change in production compared to control (OCA 12.5 µM QD, D14): 0.8808
- IL-6 fold change in production compared to control (OCA 12.5 µM QD, D14): 0.05395
- IL-8 fold change in production compared to control (OCA 12.5 µM QD, D14): 1.84
- MCP-1 fold change in production compared to control (OCA 12.5 µM QD, D14): 0.2656
- MIP-1a fold change in production compared to control (OCA 12.5 µM QD, D14): 0.8417
- MIP-1b fold change in production compared to control (OCA 12.5 µM QD, D14): 0.7263
- TIMP-1 fold change in production compared to control (OCA 12.5 µM QD, D14): 0.9472
- VEGF fold change in production compared to control (OCA 12.5 µM QD, D14): 0.5676
